Results from patent US20050107289A1, “Anti-microbial peptides and compositions” (priority 2001, published 2005).
Read-outs that look alike come from different tables or passages of the source. Non-standard residues stand in square brackets, D forms with d. Residues, ends and D or L forms follow the SMILES beside them.

Columns and labels:
[1] = tested on: vancomycin-resistant Enterococus faecalis (VRE)(ATCC 51575); assay type: cell-based, Enterococcus faecalis; set-up: key to VRE (in vitro activity): peptide concentration in μg/ml (broth dilution assay); conditions: Table 9
Method: (§1) The antimicrobial activity of the peptides was determined using a broth dilution assay essentially as descried in the guidelines of the National Committee for […] (NCCLS) [National Committee for Clinical Laboratory Standards. Methods for dilution antimicrobial susceptibility tests for bacteria that grow aerobically. Fourth edition. Approved Standard (1997). Document M7-A4. […] The microdilution method has the advantages of requiring less amount of peptide for each assay and the possibility of multiple simultaneous inoculations and was used in most studies. Several of the strains of bacteria tested are further described in Table 3.
(§2) Preparation of peptide solutions. Stock peptide solutions were prepared in 5% DMSO in aq. sucrose (9%). Determination of peptide concentrations was done by quantitative HPLC analysis using known concentrations of internal standards and/or by measuring UV absorption of tryptophane-containing peptide solutions in H2O (λ=280 εTrp: 5690). Serial 2-fold dilutions were made in the above DMSO/aq. sucrose (9%) mixture with concentrations ranging approximately 400-2 μg/ml and aliquots were dispensed in test tubes (100 μl) for the macrodilution test or in microtiter plates (20 μl) for the microdilution assays.
(§3) Inoculum preparation. Overnight cultures of different microorganisms grown in suitable media were diluted 4000 times to an approximate inoculum size of 2.5×10^5 cfu/ml.
(§4) Macrodilution method. Macrodilution methods were performed using procedures similar to those described in the National Committee for Clinical Laboratory Standards. Methods for dilution antimicrobial susceptibility tests for bacteria that grow aerobically. Fourth edition. Approved Standard (1997). Document M7-A4. (NCCLS,Villanova, Pa., 1997). Two ml aliquots of the above inoculum were dispensed to test tubes containing different peptide solutions.
(§5) Microdilution method. Microdilution methods were performed using procedures similar to those described in the National Committee for Clinical Laboratory Standards. Methods for dilution antimicrobial susceptibility tests for bacteria that grow aerobically. Fourth edition. Approved Standard (1997). Document M7-A4.

[2] = tested on: S. aureus (MRSA) ATCC 33591; assay type: cell-based, Staphylococcus aureus; conditions: Table 9
Method: as §1, §2, §3, §4, §5

[3] = tested on: murine red blood cells; assay: Red blood cell hemolysis; assay type: cell-based, mouse
Method: Selectivity of cyclic peptides for bacterial over mammalian cells was evaluated by measuring red blood cell hemolytic activities as described in Tosteson, M. T. Holmes, S. J., Razin, M. and Tosteson, D. C. Melittin Lysis of Red Cells, J. Membrane Biol. 87, 35-44(1985). Heparinized murine blood was centrifuged at 1000×g for 10 minutes. The supernatant and the buffy coat were removed. Erythrocytes were washed three times with 0.9% saline solution and then resuspended to a concentration of 5% in saline containing 10% FBS (v/v). Red blood cells were then treated with serial dilutions of test peptides in a 96 well plate at 37° C. for 30 minutes. Control samples included a saline solution arid 1% Triton X-100 as 0 and 100% hemolysis, respectively. In some cases, mellitin was used as a further control. Mellitin is a linear peptide that is hemolytic against mammalian red blood cells in vitro at a concentration of about 10 μg/ml. Plates were centrifuged at 1000 g for 10 minutes. Aliquots of the supernatant were diluted 2 times with saline solution and the absorbance was measured at 560 nm.

[4] = media c: Brain Heart Infusion (BHI)
[5] = media b: cation adjusted Meuller Hinton broth (MHBII)
[6] = media a: anti-microbial media-3 (AM-3)

SMILES | VRE (in vitro activity) [1, 4] | MRSA (in vitro activity) [2, 5] | RBC Hemolysis (HD50) [3] | VRE (in vitro activity) ([1]; media a: AM-3) | MRSA (in vitro activity) [2, 6] | VRE (in vitro activity) ([1]; media b: MHBII) | MRSA (in vitro activity) ([2]; media b: cation adjusted Meuller Hinton broth (MHBII), listed as [KSKLILIL] (57))
CC[C@@H](C)[C@H]1NC(=O)[C@H](C)NC(=O)[C@@H](Cc2c[nH]c3ccccc23)NC(=O)[C@H](C(C)C)NC(=O)[C@@H](CCCNC(=N)N)NC(=O)[C@H](CCCCN)NC1=O [SEQ ID NO:113, [KRVWAI]] (cyclo(K[dR]V[dW]A[dI])) | >200 | >200 | >200 | – | – | – | –
CC(C)C[C@@H]1NC(=O)[C@@H](Cc2c[nH]c3ccccc23)NC(=O)[C@H](CCC(N)=O)NC(=O)[C@@H](CCC(N)=O)NC(=O)[C@H](CCCCN)NC(=O)[C@@H](Cc2c[nH]c3ccccc23)NC1=O [SEQ ID NO:124, [KQQWLW]] (cyclo(K[dQ]Q[dW]L[dW])) | – | – | >35 | >35 | >35 | – | –
CC(C)C[C@H]1NC(=O)[C@H](Cc2c[nH]c3ccccc23)NC(=O)[C@@H](CC(C)C)NC(=O)[C@H](CCCCN)NC(=O)[C@@H]([C@H](C)O)NC(=O)[C@H](CCCCN)NC(=O)[C@@H](CC(C)C)NC(=O)[C@H](Cc2c[nH]c3ccccc23)NC1=O [SEQ ID NO:66, [KTKLWLWL]] (cyclo(K[dT]K[dL]W[dL]W[dL])) | 18 | 18 | 150 | – | – | – | –
CC(C)C[C@H]1NC(=O)[C@H](C)NC(=O)[C@@H](CCCCN)NC(=O)[C@H](CO)NC(=O)[C@@H](CO)NC(=O)[C@H](CCCCN)NC(=O)[C@@H](CC(C)C)NC(=O)[C@H](C)NC1=O [SEQ ID NO:78, [KSSKALAL]] (cyclo(K[dS]S[dK]A[dL]A[dL])) | >240 | >240 | >240 | – | – | – | –
CC(C)C[C@H]1NC(=O)[C@H](CCCCN)NC(=O)[C@@H](CO)NC(=O)[C@H](CCCCN)NC(=O)[C@@H](CC(C)C)NC(=O)[C@H](Cc2c[nH]c3ccccc23)NC(=O)[C@@H](CC(C)C)NC(=O)[C@H](Cc2c[nH]c3ccccc23)NC1=O [SEQ ID NO:61, [KSKLWLWL]] (cyclo(K[dS]K[dL]W[dL]W[dL])) | 15 | 15 | 125 | – | – | – | –
CC(C)C[C@@H]1NC(=O)[C@@H](Cc2c[nH]c3ccccc23)NC(=O)[C@H](C(C)C)NC(=O)[C@@H](CCCNC(=N)N)NC(=O)[C@H](CCC(N)=O)NC(=O)[C@@H](CCCNC(=N)N)NC(=O)[C@H](Cc2c[nH]c3ccccc23)NC(=O)[C@@H](Cc2c[nH]c3ccccc23)NC1=O [SEQ ID NO:70, [QRVWLWWR]] (cyclo(Q[dR]V[dW]L[dW]W[dR])) | – | 12.5 | 30 | – | – | 6.3 | –
CC(C)C[C@@H]1NC(=O)[C@@H](Cc2ccccc2)NC(=O)[C@H](CCCCN)NC(=O)[C@@H](CCCCN)NC(=O)[C@H](CCCCN)NC(=O)[C@@H](Cc2ccccc2)NC(=O)[C@H](CC(C)C)NC(=O)[C@@H](Cc2ccccc2)NC1=O [SEQ ID NO:51, [KKKFLFLF]] (cyclo(K[dK]K[dF]L[dF]L[dF])) | 75 | 18 | >300 | – | – | – | –
CC(C)C[C@@H]1NC(=O)[C@@H](Cc2c[nH]c3ccccc23)NC(=O)[C@H](CCC(N)=O)NC(=O)[C@@H](CCC(=O)O)NC(=O)[C@H](CCCCN)NC(=O)[C@@H](Cc2c[nH]c3ccccc23)NC1=O [SEQ ID NO:118, [KEQWLW]] (cyclo(K[dE]Q[dW]L[dW])) | – | – | >115 | >115 | >115 | – | –
CC(C)C[C@H]1NC(=O)[C@H](Cc2c[nH]c3ccccc23)NC(=O)[C@@H](Cc2c[nH]cn2)NC(=O)[C@H](CCCCN)NC(=O)[C@@H](Cc2c[nH]cn2)NC(=O)[C@H](CCCCN)NC(=O)[C@@H](CC(C)C)NC(=O)[C@H](Cc2c[nH]c3ccccc23)NC1=O [SEQ ID NO:73, [KHKHWLWL]] (cyclo(K[dH]K[dH]W[dL]W[dL])) | 18 | 18 | 150 | – | – | – | –
C[C@H]1NC(=O)[C@H](CCCCN)NC(=O)[C@@H](CC(N)=O)NC(=O)[C@H](CCC(N)=O)NC(=O)[C@@H](C)NC(=O)[C@H](CCCCN)NC(=O)[C@@H](CC(N)=O)NC(=O)[C@H](Cc2c[nH]c3ccccc23)NC1=O [SEQ ID NO:96, [KAQNKAWN]] (cyclo(K[dA]Q[dN]K[dA]W[dN])) | >200 | >200 | >200 | – | – | – | –
CC(C)C[C@@H]1NC(=O)[C@@H](Cc2c[nH]c3ccccc23)NC(=O)[C@H](CCCCN)NC(=O)[C@@H](CO)NC(=O)[C@H](CCC(N)=O)NC(=O)[C@@H](CO)NC(=O)[C@H](CCCCN)NC(=O)[C@@H](Cc2c[nH]c3ccccc23)NC1=O [SEQ ID NO:92, [KSQSKWLW]] (cyclo(K[dS]Q[dS]K[dW]L[dW])) | 18 | 9 | 195 | – | – | – | –
CC[C@H](C)[C@@H]1NC(=O)[C@@H](CC(C)C)NC(=O)[C@H](CCCCN)NC(=O)[C@@H](CO)NC(=O)[C@H](CCCCN)NC(=O)[C@@H](CC(C)C)NC(=O)[C@H]([C@@H](C)CC)NC(=O)[C@@H](CC(C)C)NC1=O [SEQ ID NO:57, [KSKLILIL]] (cyclo(I[dL]I[dL]K[dS]K[dL])) | >200 | – | >200 | – | – | – | 200
CC(C)C[C@H]1NC(=O)CNC(=O)[C@@H](CC(C)C)NC(=O)[C@H](CCCCN)NC(=O)[C@@H](CO)NC(=O)[C@H](CCCCN)NC(=O)[C@@H](CC(C)C)NC(=O)CNC1=O [SEQ ID NO:56, [KSKLGLGL]] (cyclo(K[dS]K[dL]G[dL]G[dL])) | >240 | >240 | >240 | – | – | – | –
CC(C)C[C@H]1NC(=O)[C@H](CCCCN)NC(=O)[C@@H](Cc2c[nH]cn2)NC(=O)[C@H](CCCCN)NC(=O)[C@@H](CC(C)C)NC(=O)[C@H](Cc2ccccc2)NC(=O)[C@@H](CC(C)C)NC(=O)[C@H](Cc2ccccc2)NC1=O [SEQ ID NO:48, [KHKLFLFL]] (cyclo(K[dH]K[dL]F[dL]F[dL])) | 13 | 7 | >220 | – | – | – | –
CC(C)C[C@@H]1NC(=O)[C@@H](CCCNC(=N)N)NC(=O)[C@H](CCC(N)=O)NC(=O)[C@@H](CCCNC(=N)N)NC(=O)[C@H](Cc2c[nH]c3ccccc23)NC(=O)[C@@H](Cc2c[nH]c3ccccc23)NC(=O)[C@H](CC(C)C)NC(=O)[C@@H](Cc2c[nH]c3ccccc23)NC1=O [SEQ ID NO:69, [QRLWLWWR]] (cyclo(Q[dR]L[dW]L[dW]W[dR])) | – | 6.3 | 35 | – | – | 6.3 | –
CC(C)C[C@H]1NC(=O)[C@H](Cc2ccccc2)NC(=O)[C@@H](CC(C)C)NC(=O)[C@H](CCCCN)NC(=O)[C@@H]([C@H](C)O)NC(=O)[C@H](CCCCN)NC(=O)[C@@H](CC(C)C)NC(=O)[C@H](Cc2ccccc2)NC1=O [SEQ ID NO:65, [KTKLFLFL]] (cyclo(K[dT]K[dL]F[dL]F[dL])) | >240 | 60 | >240 | – | – | – | –
